Test results reported in BindingDB's records for doi:10.1016/j.bmcl.2004.10.005 (Bristol Myers Squibb, 2004).

molecular target: T1, Neuropeptide Y receptor type 1 (Homo sapiens, UniProt P25929); experiment: Inhibition of binding of [125I]PYY to membranes of SK-N-MC cells expressing the human Y1 receptors
T1 sequence (P25929 whole entry): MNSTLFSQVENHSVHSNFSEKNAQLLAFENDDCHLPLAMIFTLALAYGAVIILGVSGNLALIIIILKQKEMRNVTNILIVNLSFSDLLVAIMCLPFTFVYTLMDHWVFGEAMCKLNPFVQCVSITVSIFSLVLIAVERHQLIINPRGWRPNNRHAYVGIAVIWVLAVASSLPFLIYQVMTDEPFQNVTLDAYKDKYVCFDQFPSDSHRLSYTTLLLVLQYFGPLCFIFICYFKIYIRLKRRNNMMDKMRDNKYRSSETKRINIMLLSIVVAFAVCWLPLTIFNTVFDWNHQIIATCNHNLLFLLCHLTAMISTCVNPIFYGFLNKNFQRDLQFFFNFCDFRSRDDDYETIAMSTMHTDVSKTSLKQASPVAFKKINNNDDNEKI

Point of comparison: `COC(=O)C1=C(C)N=C(C)C(C(=O)OC)C1c1cccc(NC(=NC#N)NCCNC2CCN(c3cccc(Cl)c3)CC2)c1` (stereo unspecified) [N-arylpiperazine derivative], IC50 8 nM. Against it:
- COC(=O)C1=C(C)N=C(C)C(C(=O)OC)C1c1cccc(NC(=O)NCCNC2CCN(c3ccccc3C)CC2)c1 (stereo unspecified) [2,6-Dimethyl-4-(3-{3-[2-(1-o-tolyl-piperidin-4-ylamino)-ethyl]-ureido}-phenyl)-1,4-dihydro-pyridine-3,5-dicarboxylic acid dimethyl ester] — 2-fold lower, 4 nM
- COC(=O)C1=C(C)N=C(C)C(C(=O)OC)C1c1cccc(NC(=O)NCCNC2CCN(c3ccccc3)CC2)c1 (stereo unspecified) [2,6-Dimethyl-4-(3-{3-[2-(1-phenyl-piperidin-4-ylamino)-ethyl]-ureido}-phenyl)-1,4-dihydro-pyridine-3,5-dicarboxylic acid dimethyl ester] — 4-fold lower, 2 nM
- COC(=O)C1=C(C)N=C(C)C(C(=O)OC)C1c1cccc(NC(=O)NCCNC2CCN(c3ccccc3SC)CC2)c1 (stereo unspecified) [2,6-Dimethyl-4-[3-(3-{2-[1-(2-methylsulfanyl-phenyl)-piperidin-4-ylamino]-ethyl}-ureido)-phenyl]-1,4-dihydro-pyridine-3,5-dicarboxylic acid dimethyl ester] — 1.6-fold lower, 5 nM
- COC(=O)C1=C(C)NC(C)=C(C(=O)OC)C1c1cccc(NC(=O)NCCNC2CCN(c3ccccc3[N+](=O)[O-])CC2)c1 [2,6-Dimethyl-4-[3-(3-{2-[1-(2-nitro-phenyl)-piperidin-4-ylamino]-ethyl}-ureido)-phenyl]-1,4-dihydro-pyridine-3,5-dicarboxylic acid dimethyl ester] — 4-fold lower, 2 nM
- COC(=O)C1=C(C)N=C(C)C(C(=O)OC)C1c1cccc(NC(=O)NCCNC2CCN(c3ccccc3C#N)CC2)c1 (stereo unspecified) [4-[3-(3-{2-[1-(2-Cyano-phenyl)-piperidin-4-ylamino]-ethyl}-ureido)-phenyl]-2,6-dimethyl-1,4-dihydro-pyridine-3,5-dicarboxylic acid dimethyl ester] — 2.7-fold lower, 3 nM
- COC(=O)C1=C(C)N=C(C)C(C(=O)OC)C1c1cccc(NC(=O)NCCNC2CCN(c3cccc(Cl)c3)CC2)c1 (stereo unspecified) [4-[3-(3-{2-[1-(3-Chloro-phenyl)-piperidin-4-ylamino]-ethyl}-ureido)-phenyl]-2,6-dimethyl-1,4-dihydro-pyridine-3,5-dicarboxylic acid dimethyl ester] — the same, 8 nM
- COC(=O)C1=C(C)N=C(C)C(C(=O)OC)C1c1cccc(NC(=NC#N)NCCNC2CCN(c3ccccc3C#N)CC2)c1 (stereo unspecified) [N-arylpiperazine derivative] — 2.7-fold lower, 3 nM
- COC(=O)C1=C(C)N=C(C)C(C(=O)OC)C1c1cccc(NC(=NC#N)NCCNC2CCN(c3ccccc3C)CC2)c1 (stereo unspecified) [N-arylpiperazine derivative] — 2-fold lower, 4 nM
- COC(=O)C1=C(C)N=C(C)C(C(=O)OC)C1c1cccc(NC(=NC#N)NCCNC2CCN(c3ccccc3SC)CC2)c1 (stereo unspecified) [N-arylpiperazine derivative] — 2.7-fold lower, 3 nM
- COC(=O)C1=C(C)NC(C)=C(C(=O)OC)C1c1cccc(NC(=NC#N)NCCNC2CCN(c3ccccc3[N+](=O)[O-])CC2)c1 [N-arylpiperazine derivative] — 2-fold lower, 4 nM
